Source: patent US6545007B2, “Methods for inhibiting the transmission of HIV using topically applied substituted 6-benzyl-4-oxopyrimidines” (Idenix (Cayman) Limited, priority 2000, dated 2003)
Like-named read-outs stand apart in the source and are kept apart here.

Columns and labels:
HIV-1 (IIIB strain) = format: cell-based; conditions: for EC50: anti-HIV-1 activity; for SI: selectivity index (CC50/EC50)
Protocol: Compounds. Compounds were solubilized in DMSO at 200 mM and then diluted into culture medium.
(§1) Cells and viruses. MT-4, C8166,H9/IIIB and CEM cells were grown at 37° C. in a 5% CO2 atmosphere in RPMI 1640 medium, supplemented with 10% fetal calf serum (FCS), 100 IU/mL penicillin and 100 μg/mL streptomycin. Cell cultures were checked periodically for the absence of mycoplasma contamination with a MycoTect Kit (Gibco). Human immunodeficiency virus type-I (HIV-1, IIIB strain) was obtained from supernatants of persistently infected H9/IIIB cells.
HIV Titration. Titration of HIV was performed in C8166 cells by the standard limiting dilution method (dilution 1:2, four replica wells per dilution) in 96-well plates. The infectious virus titre was determined by light microscope scoring of cytopathicity after 4 days of incubation and the virus titres were expressed as CCID50/mL.
(§2) Anti-HIV Assays. Activity of the compounds against HIV-1 and HIV-2 multiplication in acutely infected cells was based on the inhibition of virus-induced cytopathicity in MT-4 and C8166 cells, respectively. Briefly, 50 μL of culture medium containing 1×10^4 cells were added to each well of flat-bottom microtiter trays containing 50 μl of culture medium with or without various concentrations of the test compounds. Then 20 μL of an HIV suspension containing 100 CCID50 were added. After a 4-day incubation at 37° C., the number of viable cells was determined by the 3-(4,5-dimethylthiazol-[…])-2,5-diphenyltetrazolium bromide (MTT) method. Cytotoxicity of the compounds was evaluated in parallel with their antiviral activity. It was based on the viability of mock-infected cells, as monitored by the MTT method.

mock-infected MT-4 cells = experiment: Cytotoxicity: viability of mock-infected cells by the MTT method; format: cell-based, human
Protocol: as §1, §2

[1] = acutely infected MT-4 cells, MTT

Structure (SMILES)	EC50 (HIV-1 (IIIB strain); HIV-1-infected MT-4 cells) [µM]	SI (HIV-1 (IIIB strain))	CC50 (mock-infected MT-4 cells) [µM]	EC50 (HIV-1 (IIIB strain); [1]) [µM]	CC50 (mock-infected MT-4 cells; MTT) [µM]
Cc1c(Cc2c(Cl)cccc2Cl)nc(SC2CCCC2)[nH]c1=O [MC 915]	1.8	>111	> 200	–	–
CCC(C)Sc1nc(C(C)c2c(F)cccc2F)c(C)c(=O)[nH]1 (stereo not drawn) [MC 1109]	0.03	6,666	200	–	–
O=c1cc(Cc2c(Cl)cccc2Cl)nc(SC2CCCC2)[nH]1 [MC 888]	0.4	>500	> 200	–	–
Cc1c(Cc2c(Cl)cccc2Cl)nc(SC(C)C)[nH]c1=O [MC 914]	1.3	>154	> 200	–	–
CSCSc1nc(Cc2c(F)cccc2F)cc(=O)[nH]1 [MC 1161, 6-(2,6-Difluorophenyhnethyl)-3,4-dihydro-2-(methylthiomethyl)thiopyrimidin-4-(3H)-one]	–	–	–	0.8	> 200
CNc1nc(Cc2c(F)cccc2F)c(C)c(=O)[nH]1 [MC 1168]	0.4	335	135	–	–
CCCCSc1nc(Cc2c(F)cccc2F)c(C)c(=O)[nH]1 [MC 905]	0.08	>2,500	> 200	–	–
CNc1nc(C(C)c2c(F)cccc2F)c(C)c(=O)[nH]1 (stereo not drawn) [MC 1170]	–	–	–	0.03	≥ 200
CCC(C)Sc1nc(Cc2cccc(Cl)c2)c(C)c(=O)[nH]1 (stereo not drawn) [MC 910]	0.96	>208	> 200	–	–
Cc1c(C(C)c2c(F)cccc2F)nc(SC2CCCC2)[nH]c1=O (single isomer, unassigned) [MC 1047−]	–	–	–	0.7	> 200
CSc1nc(C(C)c2c(F)cccc2F)c(C)c(=O)[nH]1 (stereo not drawn) [MC 1060]	0.04	>5,000	> 200	–	–
Cc1c(C(C)c2c(F)cccc2F)nc(NC2CCCCC2)[nH]c1=O (stereo not drawn) [MC 1181]	–	–	–	0.03	58
CC(C)CSc1nc(Cc2c(F)cccc2F)cc(=O)[nH]1 [MC 866]	0.14	1,300	182	–	–
CC(c1ccccc1)c1cc(=O)[nH]c(SC2CCCC2)n1 (stereo not drawn) [MC 892]	0.6	333	159	–	–
CNc1nc(C(C)c2c(F)cccc2F)cc(=O)[nH]1 (stereo not drawn) [MC 1178]	–	–	–	0.11	106
CCCc1c(Cc2ccccc2)nc(SC(C)CC)[nH]c1=O (stereo not drawn) [MC 856]	12	16	190	–	–
CC(C)Sc1nc(C(C)c2ccccc2)cc(=O)[nH]1 (stereo not drawn) [MC 890]	0.9	>222	> 200	–	–
Cc1c(C(C)c2c(F)cccc2F)nc(SCC(C)C)[nH]c1=O (stereo not drawn) [MC 1153]	–	–	–	0.01	> 200
Cc1c(Cc2c(F)cccc2F)nc(NCc2ccccc2)[nH]c1=O [MC 1105]	0.5	100	50	–	–
CCC(C)Sc1nc(Cc2ccc(N)cc2)cc(=O)[nH]1 (stereo not drawn) [MC 960]	23	>8	> 200	–	–

Structure (SMILES)	EC50 (HIV-1 (IIIB strain); HIV-1-infected MT-4 cells) [µM]	SI (HIV-1 (IIIB strain))	CC50 (mock-infected MT-4 cells) [µM]	EC50 (HIV-1 (IIIB strain); [1]) [µM]	CC50 (mock-infected MT-4 cells; MTT) [µM]
CC(c1cc(=O)[nH]c(SC2CCCC2)n1)c1cccc2ccccc12 (stereo not drawn) [MC 972]	0.5	186	93	–	–
CSCSc1nc(Cc2c(F)cccc2F)c(C(C)C)c(=O)[nH]1 [MC 1145, 6-(2,6-Difluorophenyhnethyl)-3,4-dihydro-5-(1-methylethyl)-2-(methylthiomethyl) thiopyrimidin-4-(3H)-one]	–	–	–	0.1	200
CCCNc1nc(Cc2c(F)cccc2F)c(C)c(=O)[nH]1 [MC 1186]	0.02	>10,000	> 200	–	–
Cc1c(Cc2ccccc2)nc(OC2CC(C)CCC2C)[nH]c1=O (stereo not drawn) [MC 531]	3.5	39	138	–	–
CCC(C)Sc1nc(Cc2ccc(OC)cc2)cc(=O)[nH]1 (stereo not drawn) [MC 964]	14	10.5	147	–	–
CCC(C)Sc1nc(Cc2ccc(F)cc2)c(C)c(=O)[nH]1 (stereo not drawn) [MC 919]	11	9.5	105	–	–
CCC(C)Sc1nc(Cc2ccc(C)cc2)cc(=O)[nH]1 (stereo not drawn) [MC 809]	0.6	333.3	200	–	–
CCCCSc1nc(C(C)c2c(F)cccc2F)c(C)c(=O)[nH]1 (stereo not drawn) [MC 1175]	–	–	–	0.008	112
CCC(C)Sc1nc(Cc2cccc([N+](=O)[O-])c2)c(C)c(=O)[nH]1 (stereo not drawn) [MC 925]	0.35	>571	> 200	–	–
Cc1c(Cc2c(F)cccc2F)nc(N2CCSCC2)[nH]c1=O [MC 1206]	–	–	–	0.09	> 200
CCC(c1cc(=O)[nH]c(SC2CCCC2)n1)c1cccc2ccccc12 (stereo not drawn) [MC 973]	3	17	51	–	–
CSc1nc(Cc2c(Cl)cccc2Cl)c(C)c(=O)[nH]1 [MC 912]	3.2	>62	> 200	–	–
CC(c1ccccc1)c1cc(=O)[nH]c(SC2CCCCC2)n1 (stereo not drawn) [MC 898]	0.6	248	149	–	–
CC(C)Sc1nc(Cc2c(F)cccc2F)c(C(C)C)c(=O)[nH]1 [MC 1039]	0.4	>500	> 200	–	–
CCC(C)Sc1nc(Cc2c(Cl)cccc2Cl)c(C)c(=O)[nH]1 (stereo not drawn) [MC 850]	0.05	>4,000	> 200	–	–
CCC(c1cc(=O)[nH]c(SC2CCCCC2)n1)c1cccc2ccccc12 (stereo not drawn) [MC 975]	0.18	94	16.9	–	–
CCCCSc1nc(Cc2c(F)cccc2F)cc(=O)[nH]1 [MC 872]	0.18	900	162	–	–
CCC(C)Sc1nc(Cc2ccc(F)cc2)cc(=O)[nH]1 (stereo not drawn) [MC 889]	8.7	23	> 200	–	–
Cc1c(Cc2c(Cl)cccc2Cl)nc(SCC(C)C)[nH]c1=O [MC 916]	1.2	>166	> 200	–	–
CCC(C)Sc1nc(Cc2ccccc2C(F)(F)F)cc(=O)[nH]1 (stereo not drawn) [MC 868]	32	6.2	> 200	–	–

Structure (SMILES)	EC50 (HIV-1 (IIIB strain); HIV-1-infected MT-4 cells) [µM]	SI (HIV-1 (IIIB strain))	CC50 (mock-infected MT-4 cells) [µM]	EC50 (HIV-1 (IIIB strain); [1]) [µM]	CC50 (mock-infected MT-4 cells; MTT) [µM]
O=c1cc(Cc2c(F)cccc2F)nc(OC2CCCC2)[nH]1 [MC 1103]	20	>10	> 200	–	–
CCC(C)Sc1nc(Cc2ccc(Cl)cc2)c(C)c(=O)[nH]1 (stereo not drawn) [MC 911]	9.5	20	> 200	–	–
CC(C)Nc1nc(Cc2c(F)cccc2F)cc(=O)[nH]1 [MC 979]	0.38	>526	> 200	–	–
CC(c1cc(=O)[nH]c(SC2CCCCC2)n1)c1c(Cl)cccc1Cl (stereo not drawn) [MC 1016]	2.9	>69	> 200	–	–
CCC(C)Sc1nc(Cc2ccccc2Cl)c(C)c(=O)[nH]1 (stereo not drawn) [MC 909]	0.27	>741	> 200	–	–
O=c1cc(Cc2c(F)cccc2F)nc(NC2CCCCC2)[nH]1 [MC 1049]	0.14	471	66	–	–
CCc1c(Cc2ccccc2)nc(SC(C)CC)[nH]c1=O (stereo not drawn) [MC 798]	1	>200	> 200	–	–
CCCCSc1nc(Cc2c(Cl)cccc2Cl)c(C)c(=O)[nH]1 [MC 920]	1.17	>171	> 200	–	–
CCC(C)Sc1nc(Cc2cccc(F)c2)cc(=O)[nH]1 (stereo not drawn) [MC 884]	0.7	>286	> 200	–	–
COCCNc1nc(Cc2c(F)cccc2F)cc(=O)[nH]1 [MC 1043]	0.8	>250	> 200	–	–
Cc1c(Cc2c(F)cccc2F)nc(N2CCOCC2)[nH]c1=O [MC 1205]	–	–	–	0.047	> 200
CC(c1cc(=O)[nH]c(SC2CCCC2)n1)c1c(F)cccc1F (stereo not drawn) [MC 1008]	0.03	>6,666	> 200	–	–
O=c1cc(Cc2c(F)cccc2F)nc(N2CCCC2)[nH]1 [MC 1196]	–	–	–	2.1	> 200
Cc1c(Cc2c(F)cccc2F)nc(SC2CCCCC2)[nH]c1=O [MC 923]	0.09	>2,222	> 200	–	–
CCc1c(Cc2cccc3ccccc23)nc(SC(C)CC)[nH]c1=O (stereo not drawn) [MC 804]	5.3	>34	> 200	–	–
CCCCNc1nc(Cc2c(F)cccc2F)cc(=O)[nH]1 [MC 1077]	0.1	1,000	100	–	–
CCC(c1cc(=O)[nH]c(SC(C)C)n1)c1cccc2ccccc12 (stereo not drawn) [MC 969]	1.5	33.3	50	–	–
CCC(C)Sc1nc(Cc2ccccc2OC)cc(=O)[nH]1 (stereo not drawn) [MC 952]	1.96	>208	> 200	–	–
CCC(C)Sc1nc(Cc2cccc([N+](=O)[O-])c2)cc(=O)[nH]1 (stereo not drawn) [MC 897]	0.4	392	157	–	–
CCCNc1nc(C(C)c2c(F)cccc2F)cc(=O)[nH]1 (stereo not drawn) [MC 1190]	–	–	–	0.02	103
